Test results: patent US7271146B2, “Methods for treatment of Helicobacter pylori-associated disorders” (Vecta Ltd., priority 2002, dated 2007)
Read-outs that look alike come from different tables or passages of the source.

Legend:
H. pylori = H. pylori growth with omeprazole, pentagastrin, amoxycillin and combinations, monitored spectrophotometrically; assay type: cell-based; settings: single or triple-combined treatment; 18, 24, 46 hours; FIG. 3
Method: In an attempt to optimize the antibacterial formulation for eradication of H. pylori, the effect of pentagastrin and omeprazole provided in combination with amoxicillin was tested. Amoxicillin is a commonly accepted antibiotic used for H. pylori treatment. To investigate the effect of triple administration we tested the growth of bacteria in the presence of omeprazole, pentagastrin, amoxycillin, and their possible combinations was tested. Bacteria grown in the absence of any agent was used as a negative control. The level of bacterial growth was monitored spectrophotometrically after 18, 24, and 46 hours of treatment.

[1] = tested on: H. pylori (H-88 clinical isolate); assay: H. pylori growth in liquid medium, CFU counts, 48 hours; assay type: cell-based; settings: 48 hours incubation, FIG. 1A
[2] = Blood glucose levels in pylorus-ligated rats challenged with oral PG; assay type: in vivo; settings: compared to controls, FIG. 6
Method: The observed effects of stimulation of gastric acid secretion may occur by different mechanisms. PG may be digested by gastric enzymes and the resulting free amino acids may stimulate acid secretion directly. Alternatively, the intact peptide may be actually absorbed from the gastric lumen and exert its effect on CCK-B receptors on the ECL and parietal cells. […] Since blood glucose levels reflect the activity of peripheral insulin, glucose levels were measured in the pylorus-ligated rats following the administration of PG or saline. These measurements served as a surrogate marker for PG-induced insulin release via activation of CCK-B receptors on the ECL and parietal cells. […] This observation supports the notion that the PG was absorbed intact and thereby could directly exert its effect on gastric tissue and stimulate secretion of gastric acid. […] B. Co-Administration of PG and Omeprazole

gastric acid secretion [3] = assay: Gastric acid secretion after oral PG in fasted rats, no pylorus ligation; assay type: in vivo, Wistar Hanover rats; settings: PG 50 μg P.O.
Method: (§1) Male and female Wistar Hanover rats, 7-10 weeks of age, were obtained from Harlan Laboratories (Rehovot, Israel). Animals were fed standard chow and received unlimited water supply. The animals were kept in automatically controlled temperature (between 20-24° C.), a 12-hour light/dark cycle, and 15 air changes an hour.
(§2) Rats were fasted (with water freely available) for 24 hours before experimentation. PG or saline were introduced into the stomach by means of a steel feeding needle. Thereafter, the animals were injected with Domitor and Ketaset; the abdominal wall was dissected and gastric fluid (approximately 30 μl) was collected by puncture with a needle (0.45×13 2006-09 Artsana S.P.A., Grandate (CO), Italy) at the indicated time points. Gastric juice was kept frozen at −80° C. until use. In some experiments, the rats were first anesthetized and dissected, after which test reagents were introduced by direct injection into the stomach. […]
(§3) Frozen gastric juice was defrosted at room temperature, mixed by vortexing, and centrifuged for 5 minutes at 14,000 RPM. […] The pH was measured, and NaOH (0.001 N) was added to the sample until pH 7 was reached, as determined by measuring pH using a pH meter (pH211, Hanna Instruments, 35030 Sameola di Rubano, Italy). […]

acid secretion = settings: oral PG, cited from earlier work
gastric mucosa = settings: applied to the luminal surface, in vitro bullfrog model; cited from earlier work
gastric acid secretion [4] = assay: Gastric acid secretion after oral PG in pylorus-ligated rats; assay type: in vivo, Wistar Hanover rats; settings: PG 50 μg P.O., vs saline
Method: as §1, §2, §3

Row | Compound | inhibition of bacterial growth (spectrophotometric) (H. pylori) | bacterial growth, CFU counts [1] | blood glucose levels [2] | time of maximal effect on acid secretion after oral PG (gastric acid secretion [3]; p=0.05) [min] | secretion of acid into the gastric lumen (gastric acid secretion [3]; vs saline and S.C. PG, FIG. 4) | effect on acid secretion (acid secretion; four normal subjects) | effect on acid secretion (acid secretion; three patients with gastrointestinal abnormalities) | effect on gastric mucosa (gastric mucosa) | gastric acid output (gastric acid secretion [4]; all time points, p<0.05, FIG. 5B) | gastric pH (gastric acid secretion [4]; p<0.05, FIG. 5A)
1 | CC1(C)S[C@@H]2[C@H](NC(=O)[C@H](N)c3ccc(O)cc3)C(=O)N2[C@H]1C(=O)O [amoxicillin] | moderate inhibition |  |  |  |  |  |  |  |  | 
2 | caerulein |  | inhibited bacterial growth to an extent similar to that of omeprazole |  |  |  |  |  |  |  | 
3 | βAla-Trp-Met-Asp-PheNH2 [PG] | moderate inhibition | inhibited bacterial growth to an extent similar to that of omeprazole | decreased | 30 | significant secretion of acid | no effect | some effect | did not affect the gastric mucosa | significantly increased | decreased
